Assay results taken from PubChem BioAssay AID248 (DTP/NCI, 2004).
Values joined by “and” are separate entries in the source; they are usually repeats but may differ in a detail not shown here. Equal values may be shown once. Inconclusive results and toxic doses are left out.

System: L1210 leukemia ip in BDF1 mice, survival T/C
Assay: NCI In Vivo Anticancer Drug Screen. Data for tumor model L1210 Leukemia (intraperitoneal) in B6D2F1 (BDF1) mice
Conditions: endpoint: mean survival time, higher = longer survival
Description: The antitumor activity of compounds was measured in mice bearing transplantable tumors. Survival or tumor size were measured and the results are expressed as the measurement made in the treated group (T) divided by the measurement made in the vehicle treated control group (C). The tumor model used in this assay is L1210 Leukemia (intraperitoneal) in B6D2F1 (BDF1) mice

[1] = dose: 100.0 mg/kg/injection, schedule: Q01DX009 (ip), vehicle: Klucel (hydroxypropylcellulose) (HPC)
[2] = dose: 200.0 mg/kg/injection, schedule: Q01DX009 (ip), vehicle: Klucel (hydroxypropylcellulose) (HPC)
[3] = dose: 100.0 mg/kg/injection, schedule: Q01DX009 (ip), vehicle: saline with Tween-80
[4] = dose: 200.0 mg/kg/injection, schedule: Q01DX009 (ip), vehicle: saline with Tween-80
[5] = dose: 400.0 mg/kg/injection, schedule: Q01DX009 (ip), vehicle: saline with Tween-80
[6] = dose: 100.0 mg/kg/injection, schedule: Q04DX002 (ip), vehicle: gum acacia
[7] = dose: 200.0 mg/kg/injection, schedule: Q04DX002 (ip), vehicle: gum acacia
[8] = dose: 400.0 mg/kg/injection, schedule: Q04DX002 (ip), vehicle: gum acacia
[9] = dose: 100.0 mg/kg/injection, schedule: Q01DX001 (ip), vehicle: carboxymethylcellulose (CMC)
[10] = dose: 100.0 mg/kg/injection, schedule: Q01DX001 (ip), vehicle: Klucel (hydroxypropylcellulose) (HPC)
[11] = dose: 100.0 mg/kg/injection, schedule: Q04DX002 (ip), vehicle: Klucel (hydroxypropylcellulose) (HPC)
[12] = dose: 100.0 mg/kg/injection, schedule: Q04DX003 (ip), vehicle: Klucel (hydroxypropylcellulose) (HPC)
[13] = dose: 200.0 mg/kg/injection, schedule: Q01DX001 (ip), vehicle: Klucel (hydroxypropylcellulose) (HPC)
[14] = dose: 200.0 mg/kg/injection, schedule: Q04DX002 (ip), vehicle: Klucel (hydroxypropylcellulose) (HPC)
[15] = dose: 400.0 mg/kg/injection, schedule: Q01DX001 (ip), vehicle: Klucel (hydroxypropylcellulose) (HPC)
[16] = dose: 400.0 mg/kg/injection, schedule: Q01DX009 (ip), vehicle: Klucel (hydroxypropylcellulose) (HPC)
[17] = dose: 400.0 mg/kg/injection, schedule: Q04DX002 (ip), vehicle: Klucel (hydroxypropylcellulose) (HPC)
[18] = dose: 100.0 mg/kg/injection, schedule: Q04DX003 (ip), vehicle: saline with Tween-80
[19] = dose: 200.0 mg/kg/injection, schedule: Q04DX003 (ip), vehicle: saline with Tween-80
[20] = dose: 400.0 mg/kg/injection, schedule: Q04DX003 (ip), vehicle: saline with Tween-80
[21] = dose: 100.0 mg/kg/injection, schedule: Q01DX001 (ip), vehicle: saline

For `COc1cc([N+](=O)[O-])ccc1NC(=O)Oc1ccc(F)cc1Cl`, the T/C [1] was 94 % of control and the T/C [2] was 88 % of control.
With `N/C(=N/N=C/c1ccc(O)cc1)N[N+](=O)[O-]` the T/C [3] was 105 % of control, the T/C [4] was 89 % of control and the T/C [5] was 90 % of control.
With `CCCCCCCC(N)C(=O)O` (centres undefined) the T/C [6] was 95 % of control, the T/C [7] was 104 % of control and the T/C [8] was 88 % of control.
`CCCCCC(CC)C(CC)CO` (centres undefined) was tested, and the T/C (dose: 15.0 mg/kg/injection, schedule: Q01DX001 (ip), vehicle: carboxymethylcellulose (CMC)) was 95 % of control, the T/C (dose: 30.0 mg/kg/injection, schedule: Q01DX001 (ip), vehicle: carboxymethylcellulose (CMC)) was 96 % of control and the T/C (dose: 60.0 mg/kg/injection, schedule: Q01DX001 (ip), vehicle: carboxymethylcellulose (CMC)) was 96 % of control.
`CCSCCC1(CCC(C)C)C(=O)NC(=Nc2ccccc2)NC1=O` (centres undefined) was tested, and the T/C [9] was 90 % of control, the T/C (dose: 200.0 mg/kg/injection, schedule: Q01DX001 (ip), vehicle: carboxymethylcellulose (CMC)) was 88 % of control and the T/C (dose: 400.0 mg/kg/injection, schedule: Q01DX001 (ip), vehicle: carboxymethylcellulose (CMC)) was 96 % of control.
For `CCOc1ccccc1-n1c(-c2ccc([N+](=O)[O-])cc2)csc1=NC(=O)c1cccc([N+](=O)[O-])c1`, the T/C [10] was 101 % of control, the T/C [1] was 96 % of control and 100 % of control and 106 % of control and the T/C [11] was 94 % of control and 98 % of control. The T/C [12] was 101 % of control, the T/C [13] was 101 % of control and the T/C [2] was 93 % of control (2×) and 95 % of control. The T/C [14] was 97 % of control and 98 % of control, the T/C (dose: 200.0 mg/kg/injection, schedule: Q04DX003 (ip), vehicle: Klucel (hydroxypropylcellulose) (HPC)) was 95 % of control and the T/C [15] was 98 % of control. For the same compound, the T/C [16] was 95 % of control and 97 % of control (2×), the T/C [17] was 96 % of control and 97 % of control and the T/C (dose: 400.0 mg/kg/injection, schedule: Q04DX003 (ip), vehicle: Klucel (hydroxypropylcellulose) (HPC)) was 93 % of control.
For `CS(=O)(=O)c1ccc(C(O)C(CO)NC(=O)C(Cl)Cl)cc1` (centres undefined), the T/C [11] was 96 % of control, the T/C [14] was 93 % of control and the T/C [17] was 90 % of control.
In the case of `O=C(COc1ccc(Cl)cc1Cl)Nc1cc(Cl)ccc1Cl`, the T/C [6] is reported as 95 % of control, the T/C [7] is reported as 95 % of control and the T/C [8] is reported as 100 % of control.
In the case of `Nc1nc(-c2ccccc2)c(CCCO)c(=O)[nH]1`, the T/C [10] is reported as 102 % of control, the T/C [13] is reported as 102 % of control and the T/C [15] is reported as 98 % of control.
For `O=C(O)CCC(=O)CC1CCCCC1`, the T/C [18] was 101 % of control and the T/C [19] was 87 % of control.
For `O=C(CBr)c1cc(-c2cccc(I)c2)nc2c(Cl)cc(Cl)cc12`, the T/C [18] was 101 % of control, the T/C [19] was 93 % of control and the T/C [20] was 93 % of control.
`CCOC(=O)/C=C(\CC(=O)O)Nc1ccccc1` was tested, and the T/C [21] was 90 % of control, the T/C (dose: 200.0 mg/kg/injection, schedule: Q01DX001 (ip), vehicle: saline) was 93 % of control and the T/C (dose: 400.0 mg/kg/injection, schedule: Q01DX001 (ip), vehicle: saline) was 95 % of control.
`CCCCCCCCCCCCCCCCCC(=O)OCCC(C)CCCC(C)C` (centres undefined) was tested, and the T/C (dose: 100.0 mg/kg/injection, schedule: Q04DX003 (ip), vehicle: other) was 96 % of control, the T/C (dose: 200.0 mg/kg/injection, schedule: Q04DX003 (ip), vehicle: other) was 98 % of control and the T/C (dose: 400.0 mg/kg/injection, schedule: Q04DX003 (ip), vehicle: other) was 88 % of control.
With `NCc1c(Cl)c(Cl)c(Cl)c(CN)c1Cl` the T/C (dose: 50.0 mg/kg/injection, schedule: Q01DX001 (ip), vehicle: carboxymethylcellulose (CMC)) was 89 % of control, the T/C (dose: 50.0 mg/kg/injection, schedule: Q01DX009 (ip), vehicle: saline with Tween-80) was 97 % of control and the T/C [9] was 94 % of control. The T/C [3] was 102 % of control and the T/C [4] was 93 % of control.
With `CCOC(=O)Nc1nc(NC(=O)OCC)c(Cl)nc1Cl` the T/C (dose: 25.0 mg/kg/injection, schedule: Q01DX009 (ip), vehicle: water) was 104 % of control, the T/C (dose: 50.0 mg/kg/injection, schedule: Q01DX009 (ip), vehicle: water) was 100 % of control and the T/C (dose: 100.0 mg/kg/injection, schedule: Q01DX009 (ip), vehicle: water) was 114 % of control. The T/C (dose: 200.0 mg/kg/injection, schedule: Q01DX009 (ip), vehicle: water) was 106 % of control and the T/C (dose: 400.0 mg/kg/injection, schedule: Q01DX009 (ip), vehicle: water) was 97 % of control.
In the case of `O=C(N=Nc1c(NNC(=O)c2ccc([N+](=O)[O-])cc2)c(O)c2ccccc2c1O)c1ccc([N+](=O)[O-])cc1`, the T/C (dose: 75.0 mg/kg/injection, schedule: Q04DX003 (ip), vehicle: saline) is reported as 102 % of control, the T/C (dose: 150.0 mg/kg/injection, schedule: Q04DX003 (ip), vehicle: saline) is reported as 89 % of control and the T/C (dose: 300.0 mg/kg/injection, schedule: Q04DX003 (ip), vehicle: saline) is reported as 94 % of control.
`ON=C(c1ccccc1)c1ccccc1` was tested, and the T/C [3] was 101 % of control and the T/C [4] was 105 % of control.
In the case of `CP1(=O)CCC(Br)C1Br` (centres undefined), the T/C (dose: 100.0 mg/kg/injection, schedule: Q04DX002 (ip), vehicle: saline with Tween-80) is reported as 91 % of control, the T/C (dose: 200.0 mg/kg/injection, schedule: Q04DX002 (ip), vehicle: saline with Tween-80) is reported as 91 % of control and the T/C (dose: 400.0 mg/kg/injection, schedule: Q04DX002 (ip), vehicle: saline with Tween-80) is reported as 98 % of control.
For `CC(C)CCC1(c2ccccc2)C(=O)NC(=O)NC1=O`, the T/C [21] was 92 % of control.
With `Nc1cccc2c1C(=O)c1cccc(Cl)c1C2=O` the T/C [18] was 94 % of control, the T/C [19] was 101 % of control and the T/C [20] was 94 % of control.
In the case of `CCNC(=O)c1ccc(NC(=O)Nc2ccc(C3=NCCN3)cc2)cc1NC(=O)Nc1ccc(C2=NCCN2)cc1`, the T/C (dose: 37.5 mg/kg/injection, schedule: Q01DX015 (ip), vehicle: water) is reported as 198 % of control, the T/C (dose: 46.0 mg/kg/injection, schedule: Q01DX001 (ip), vehicle: water) is reported as 123 % of control and the T/C (dose: 50.0 mg/kg/injection, schedule: Q01DX015 (ip), vehicle: water) is reported as 163 % of control. The T/C (dose: 62.5 mg/kg/injection, schedule: Q01DX Z (ip), vehicle: water) was 116 % of control, the T/C (dose: 93.0 mg/kg/injection, schedule: Q01DX001 (ip), vehicle: water) was 166 % of control and 189 % of control and the T/C (dose: 140.0 mg/kg/injection, schedule: Q01DX001 (ip), vehicle: water) was 171 % of control and 176 % of control and 193 % of control.
With `Cc1ccc(C(=O)C2CC=CCC2C(=O)c2ccc(C)cc2)cc1` (centres undefined) the T/C (dose: 50.0 mg/kg/injection, schedule: Q01DX009 (ip), vehicle: Klucel (hydroxypropylcellulose) (HPC)) was 97 % of control, the T/C [1] was 91 % of control and the T/C [2] was 92 % of control. The T/C [16] was 90 % of control.
In the case of `CC1=C(N2CC2)C(=O)c2ccccc2C1=O`, the T/C (dose: 12.5 mg/kg/injection, schedule: Q04DX003 (ip), vehicle: Klucel (hydroxypropylcellulose) (HPC)) is reported as 98 % of control, the T/C (dose: 25.0 mg/kg/injection, schedule: Q04DX003 (ip), vehicle: Klucel (hydroxypropylcellulose) (HPC)) is reported as 102 % of control and the T/C (dose: 50.0 mg/kg/injection, schedule: Q04DX003 (ip), vehicle: Klucel (hydroxypropylcellulose) (HPC)) is reported as 102 % of control. For the same compound, the T/C [10] was 102 % of control and the T/C [12] was 102 % of control.
In the case of `Cc1cnc(C#N)c(Cl)n1`, the T/C [3] is reported as 95 % of control, the T/C [18] is reported as 92 % of control and the T/C [4] is reported as 101 % of control. The T/C [19] was 98 % of control, the T/C [5] was 88 % of control and the T/C [20] was 97 % of control.
For `C/C=C/C[P+](Cc1ccccc1)(c1ccccc1)c1ccccc1`, the T/C (dose: 3.13 mg/kg/injection, schedule: Q01DX009 (ip), vehicle: saline with Tween-80) was 103 % of control and the T/C (dose: 12.5 mg/kg/injection, schedule: Q01DX009 (ip), vehicle: saline with Tween-80) was 120 % of control and 91 % of control.
For `N#Cc1cc(C#N)c(NN)nc1N`, the T/C [18] was 86 % of control, the T/C [19] was 94 % of control and the T/C [20] was 92 % of control.
